This note sets out measurements from ChEMBL document CHEMBL1201862, “PubChem BioAssay data set” (2004).

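Compound exposure: 48 hours, 5 concentrations, 96-well plates. GI50: concentration for 50% inhibition of growth.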 Activity calls are given as the source filed them. Rule as the data show it: active = GI50 up to about 1.1 µM and inactive = higher.

Some test systems named below: 786-0; ACHN; CAKI-1; COLO 205; HCT-116; HOP-92; Hs-578T; KM12; M14; MCF7; MOLT-4; NCI-H23; NCI-H522; RPMI-8226; SF-295; SF-539; SK-MEL-2; SK-OV-3; T47D; HL-60.
Holding throughout (assay): NCI tumour cell line growth inhibition, 48 h

Regarding `O=C(CCN1CCCCC1)c1csc2ccccc12`, the GI50 in the assay with 786-0 is 50.1 µM (inactive); with ACHN it was > 100 µM (inactive); with CAKI-1, > 100 µM (inactive); in the assay with COLO 205 it was > 100 µM (inactive); in the assay with HCT-116 it was > 100 µM (inactive); in the assay with HOP-92 it was > 100 µM (inactive). For the same compound, the GI50 in the assay with Hs-578T was > 100 µM (inactive); in the assay on KM12 it was 33.1 µM (inactive); in the assay on M14, > 100 µM (inactive); with MCF7 it was 20 µM (inactive); in the assay with MOLT-4, 61.2 µM (inactive); in the assay on NCI-H23, > 100 µM (inactive). The GI50 was > 100 µM (inactive) with NCI-H522; 10.1 µM (inactive) in the assay on RPMI-8226; > 100 µM (inactive) with SF-295; > 100 µM (inactive) with SF-539; > 100 µM (inactive) in the assay on SK-MEL-2; > 100 µM (inactive) with SK-OV-3. For the same compound, the GI50 in the assay on T47D was 45.7 µM (inactive).

For the compound `C1=C[C@@H]2c3ccc4cnccc4c3NC[C@@H]2C1`, the GI50 is > 100 µM (inactive) with 786-0; > 100 µM (inactive) in the assay with ACHN; > 100 µM (inactive) in the assay on COLO 205; > 100 µM (inactive) in the assay with HCT-116; > 100 µM (inactive) in the assay with HL-60; 75.2 µM (inactive) in the assay with HOP-92. Further, the GI50 was 46.8 µM (inactive) in the assay on Hs-578T; 86.3 µM (inactive) in the assay on KM12; > 100 µM (inactive) in the assay on M14; > 100 µM (inactive) in the assay on MCF7; > 100 µM (inactive) with MOLT-4; > 100 µM (inactive) in the assay on NCI-H23. Besides, the GI50 in the assay on RPMI-8226, with SF-295, in the assay with SF-539, in the assay on SK-OV-3 and in the assay with T47D was > 100 µM (inactive) throughout.

For `CC1CC[C@@]2(OC1)OC1C[C@H]3[C@@H]4C/C(=N\N(C)C)[C@@]5(O)CC(O)CC[C@]5(C)[C@H]4CC[C@]3(C)C1[C@@H]2C` (some centres not stated), the GI50 is 40.6 µM (inactive) in the assay with 786-0; 73.3 µM (inactive) in the assay with ACHN; 43.9 µM (inactive) with COLO 205; 24.7 µM (inactive) in the assay with HCT-116; 21.2 µM (inactive) in the assay on HL-60; 98.2 µM (inactive) in the assay on HOP-92. Moreover, the GI50 was 33.3 µM (inactive) in the assay on Hs-578T; 29.3 µM (inactive) with KM12; > 100 µM (inactive) in the assay with M14; 39.1 µM (inactive) in the assay on MCF7; 34.1 µM (inactive) in the assay with MOLT-4; 30.5 µM (inactive) with NCI-H23. Moreover, the GI50 with RPMI-8226 was 41.6 µM (inactive); with SF-539, 36 µM (inactive); with SK-MEL-2, 36.7 µM (inactive); in the assay with SK-OV-3, 76.6 µM (inactive); with T47D it was 31.5 µM (inactive).

For `CC(C)(C)OC(=O)N(O)CCCn1cnc2c(N)ncnc21`, the GI50 with 786-0, with ACHN, with COLO 205, in the assay with HCT-116, in the assay on HOP-92 and in the assay on Hs-578T was > 100 µM (inactive) each time. For the same compound, the GI50 with KM12, with M14, in the assay on MCF7, in the assay with MOLT-4, in the assay with NCI-H23 and with NCI-H522 was > 100 µM (inactive) throughout. Also, the GI50 in the assay on RPMI-8226, in the assay with SF-295, in the assay on SF-539, in the assay with SK-MEL-2, in the assay on SK-OV-3 and in the assay on T47D was > 100 µM (inactive) in each case.

As for `COc1ccc(/N=N/c2ccc3oc(=O)c(C(=O)Nc4ccc(Cl)cc4)cc3c2)cc1`, the GI50 with 786-0 is > 10 µM (inactive); in the assay on ACHN, > 10 µM (inactive); in the assay with CAKI-1, > 10 µM (inactive); in the assay with COLO 205, > 10 µM (inactive); in the assay with HOP-92 it was 7.83 µM (inactive); in the assay on Hs-578T it was > 10 µM (inactive). Also, the GI50 in the assay with KM12 was 4.32 µM (inactive); with M14, > 10 µM (inactive); in the assay with MCF7, 3.17 µM (inactive); in the assay with MOLT-4 it was 7.46 µM (inactive); in the assay with NCI-H23, 6.38 µM (inactive); in the assay on NCI-H522, > 10 µM (inactive). The GI50 is > 10 µM (inactive) in the assay on RPMI-8226; > 10 µM (inactive) in the assay on SF-295; 5.18 µM (inactive) in the assay with SF-539; > 10 µM (inactive) in the assay with SK-MEL-2; > 10 µM (inactive) in the assay on SK-OV-3; 6.76 µM (inactive) in the assay with T47D.

Take `COc1cc(Cc2cnc(N)nc2N)cc(OC)c1OCCCNc1ccc([N+](=O)[O-])cc1`: the GI50 was 12.4 µM (inactive) in the assay on 786-0; 18 µM (inactive) in the assay on ACHN; 33.2 µM (inactive) in the assay on CAKI-1; 12.2 µM (inactive) in the assay on COLO 205; 12.6 µM (inactive) in the assay on HCT-116; 14.3 µM (inactive) in the assay with HOP-92. Also, the GI50 was 18.5 µM (inactive) with Hs-578T; 14.4 µM (inactive) with KM12; 6.35 µM (inactive) in the assay on M14; 12.1 µM (inactive) with MCF7; 2.72 µM (inactive) in the assay on MOLT-4; 16 µM (inactive) in the assay with NCI-H23. For the same compound, the GI50 in the assay on NCI-H522 was 13 µM (inactive); with SF-539 it was 12.7 µM (inactive); with SK-MEL-2, 15.5 µM (inactive); in the assay with SK-OV-3, 31.5 µM (inactive); in the assay with T47D, 8.07 µM (inactive).

Turning to `CC(=O)c1ccc(-c2oc(-c3ccccc3)cc2-c2ccc3c(c2)OCO3)s1`, the GI50 was > 100 µM (inactive) in the assay on 786-0; > 100 µM (inactive) in the assay with ACHN; 2.42 µM (inactive) with CAKI-1; > 100 µM (inactive) in the assay with COLO 205; > 100 µM (inactive) with HCT-116; 1.02 µM (active) in the assay with HL-60. For the same compound, the GI50 in the assay with HOP-92 was > 100 µM (inactive); in the assay on Hs-578T, > 100 µM (inactive); in the assay with M14 it was 65.3 µM (inactive); in the assay on MCF7, 59 µM (inactive); in the assay on MOLT-4, > 100 µM (inactive); in the assay with NCI-H23 it was 19.1 µM (inactive). Further, the GI50 is > 100 µM (inactive) in the assay with RPMI-8226; > 100 µM (inactive) in the assay on SF-295; > 100 µM (inactive) in the assay with SF-539; > 100 µM (inactive) with SK-OV-3; 17 µM (inactive) in the assay on T47D.

With `C#CCn1c(=O)c2cc(OC)c(OC)cc2n(CC#C)c1=O`, the GI50 in the assay with 786-0, in the assay on ACHN, in the assay with CAKI-1, with COLO 205, in the assay with HCT-116 and in the assay on HOP-92 was > 10 µM (inactive) throughout. Moreover, the GI50 with Hs-578T, in the assay on KM12, in the assay on M14, in the assay on MCF7, with MOLT-4 and in the assay with NCI-H23 was > 10 µM (inactive) each time. Moreover, the GI50 in the assay with NCI-H522, in the assay on RPMI-8226, in the assay with SF-295, in the assay on SF-539, in the assay on SK-MEL-2 and with SK-OV-3 was > 10 µM (inactive) in each case. Moreover, the GI50 with T47D was > 10 µM (inactive).
